Results published in ChEMBL document CHEMBL3875186, “Design, synthesis, and characterization of rhein analogs as novel inhibitors of scavenger receptor A” (Bioorg Med Chem Lett, 2017).
Active and inactive are the calls of the source. The calls are words filed in the database; no cut-off is given here.

Key:
[1] = target: T1, Macrophage scavenger receptor types I and II (Mus musculus) (UniProt P30204); assay: (§1) Antagonist activity at SRA in RM1-OVA tumor bearing wild type C57BL/6 mouse derived CD11bpositiveLy6ChighLy6Gnegative myeloid-derived suppressive cells co-cultured with splenocytes assessed as reduction in protein-mediated inhibition of anti CD3/CD28 antibody-induced T-cell proliferation at 10 to 20 uM preincubated for 2 hrs followed by splenocytes addition measured after 72 hrs by [3H]-thymidine incorporation assay
T1 sequence (whole entry): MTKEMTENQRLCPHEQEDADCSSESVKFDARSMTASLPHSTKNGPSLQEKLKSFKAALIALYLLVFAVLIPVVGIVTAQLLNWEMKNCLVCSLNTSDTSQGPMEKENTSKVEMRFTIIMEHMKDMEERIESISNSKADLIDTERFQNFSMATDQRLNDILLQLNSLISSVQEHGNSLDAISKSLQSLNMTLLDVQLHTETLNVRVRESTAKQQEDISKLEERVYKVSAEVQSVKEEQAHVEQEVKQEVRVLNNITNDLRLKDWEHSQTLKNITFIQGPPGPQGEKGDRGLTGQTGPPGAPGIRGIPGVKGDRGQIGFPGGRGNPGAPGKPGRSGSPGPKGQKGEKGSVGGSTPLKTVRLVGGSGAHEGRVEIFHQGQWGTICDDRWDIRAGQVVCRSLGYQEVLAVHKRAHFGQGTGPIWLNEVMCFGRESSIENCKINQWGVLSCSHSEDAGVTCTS

[2] = target: T1, Macrophage scavenger receptor types I and II (Mus musculus); assay: Antagonist activity at mouse recombinant SRA extracellular domain expressed in baculovirus infected Sf21 insect cells assessed as inhibition of protein-induced reduction of IL2 gene promoter activation in anti CD3/CD28 antibody activated wild type C57BL/6 mouse B3Z T-cells at 50 uM after 5 hrs by beta-galactosidase reporter gene assay
[3] = target: T1, Macrophage scavenger receptor types I and II (Mus musculus); assay: as §1, with “activation by measuring IL-2 secretion pretreated” for “proliferation at 10 to 20 uM preincubated”, “56” for “72”, “ELISA” for “[3H]-thymidine incorporation assay”
[4] = target: T1, Macrophage scavenger receptor types I and II (Mus musculus); assay: as §1, with “activation by measuring IL-2 secretion” for “proliferation”, “pretreated” for “preincubated”, “56” for “72”, “ELISA” for “[3H]-thymidine incorporation assay”

inhibition [1] | inhibition [2] | inhibition [3] | inhibition [4] | Structure (SMILES)
Active |  |  |  | O=C(O)c1cc(O)c2c(c1)C(=O)c1cccc(O)c1C2=O
Active | Active | Dose-dependent effect |  | O=C1c2cccc(O)c2C(=O)c2c(O)cccc21
Active | Active |  | Active | O=C(O)c1ccc2c(c1)C(=O)c1cccc(O)c1C2=O
